The values below come from PubChem BioAssay (NCI).

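In this assay, cells in 96-well plates receive the compound at five concentrations for 48 hours. Endpoints are linearly interpolated between the surrounding concentrations. The concentration for 50% growth inhibition is given as GI50. TGI is the concentration that stops growth completely.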

What all share (experiment): NCI-60 cell line screen, 48 h
In experiment [1] the test system is MDA-MB-468 breast.
Experiment [2] has as its system 786-0 renal.
In experiment [3] the test system is A498 renal.
Experiment [4] has as its system A549 NSCLC.
Experiment [5] deals with ACHN renal.
Experiment [6] concerns BT-549 breast.
In experiment [7] the test system is CAKI-1 renal.
The test system of experiment [8] is CCRF-CEM leukemia.
Experiment [9] deals with COLO 205 colon.
The test system of experiment [10] is DU-145 prostate.
Experiment [11] deals with EKVX NSCLC.
Experiment [12] has as its system HCC-2998 colon.
The test system of experiment [13] is HCT-116 colon.
Experiment [14] concerns HCT-15 colon.
Experiment [15] deals with HL-60(TB) leukemia.
The test system of experiment [16] is HOP-62 NSCLC.
In experiment [17] the test system is HOP-92 NSCLC.
Experiment [18] has as its system HS 578T breast.
Experiment [19] relates to HT29 colon.
Experiment [20] has as its system IGROV1 ovarian.
The test system of experiment [21] is K-562 leukemia.
The subject of experiment [22] is KM12 colon.
The subject of experiment [23] is LOX IMVI melanoma.
The subject of experiment [24] is M14 melanoma.
Experiment [25] deals with MALME-3M melanoma.
Experiment [26] has as its system MCF7 breast.
The subject of experiment [27] is MDA-MB-231 breast.
Experiment [28] deals with MDA-MB-435.
Experiment [29] deals with MOLT-4 leukemia.
Experiment [30] deals with NCI-H226 lung.
Experiment [31] deals with NCI-H23 lung.
The test system of experiment [32] is NCI-H460 lung.
The test system of experiment [33] is NCI-H522 lung.
The subject of experiment [34] is OVCAR-3 ovarian.
The test system of experiment [35] is OVCAR-4 ovarian.
For experiment [36], the system named is OVCAR-5 ovarian.
The subject of experiment [37] is OVCAR-8 ovarian.
The test system of experiment [38] is PC-3 prostate.
Experiment [39] has as its system RPMI-8226 leukemia.
For experiment [40], the system named is RXF 393 renal.
In experiment [41] the test system is SF-268 CNS.
Experiment [42] concerns SF-295 CNS.
Experiment [43] has as its system SF-539 CNS.
The subject of experiment [44] is SK-MEL-28 melanoma.
For experiment [45], the system named is SK-MEL-5 melanoma.
Experiment [46] concerns SK-OV-3 ovarian.
Experiment [47] relates to SN12C renal.
Experiment [48] has as its system SNB-19 CNS.
For experiment [49], the system named is SNB-75 CNS.
In experiment [50] the test system is SW-620 colon.
Experiment [51] has as its system T-47D breast.
The subject of experiment [52] is TK-10 renal.
Experiment [53] deals with U251 CNS.
For experiment [54], the system named is UACC-257 melanoma.
Experiment [55] relates to UACC-62 melanoma.
The test system of experiment [56] is UO-31 renal.

Take `O=C(CF)N(O)c1ccc(/C=C/c2ccccc2)cc1`: in [1], the GI50 was 0.0642 µM and the TGI amounted to 0.354 µM.

As for `N#Cc1ccc(N2Cc3ccccc3OC3=C2C(=O)c2c(O)ccc(O)c2C3=O)cc1`, in experiment [1], the GI50 was 0.132 µM and the TGI stood at 0.366 µM.

As to `CC(=O)OCC(=O)O[C@@H]1C[C@]2(C(C)C)O[C@@]1(C)[C@@H]1CC[C@@H](C)[C@H]1[C@@H]2OC(=O)/C=C/c1ccccc1`, in experiment [1], the GI50 is 13.5 µM and the TGI was determined as 55.6 µM.

Take `CC[C@H](Nc1nc(N)nc(C)c1C#N)c1nc2cccc(NCc3ccc(C(=O)NO)cc3)c2c(=O)n1-c1ccccc1`: in [1], the GI50 was 1.27 µM and the TGI was 4.42 µM.

As for `O=C(CN1CCN(c2ccc(Cl)cc2)CC1)N1CCN(c2nnc(-c3ccc(Cl)cc3)c(-c3ccc(Cl)cc3)n2)CC1`, in experiment [1], the GI50 was 18.8 µM and the TGI amounted to 65.2 µM.

As for `Cc1noc(C)c1-c1cc(O)cc(C(O)c2ccccc2)c1` (configuration not stated), in experiment [1], the GI50 was 1.89 µM and the TGI came to 40.6 µM.

For `Cn1cc(C2=C(c3cccnc3)C(=O)NC2=O)c2ccccc21`, in [1], the GI50 was above 20.1 µM and the TGI is above 25 µM.

On to `CC(=O)O[C@H](C[C@H](C(C)C)N(C)C(=O)[C@@H](NC(=O)[C@H]1CCCCN1C)C(C)C)c1nc(C(=O)N[C@@H](Cc2ccccc2)C[C@H](C)C(=O)O)c(C(C)C)s1`, for which, in [1], the GI50 was below 0.00333 µM and the TGI was 0.194 µM.

Take `Oc1c(CN2CCCC2)cc(COCc2ccc(Br)cc2)c2cccnc12`: in experiment [1], the GI50 was 0.602 µM and the TGI is 2.14 µM.

Consider `Cc1cnc(/C=N\NC(N)=S)c2cccc(N)c12`, for which, in experiment [1], the GI50 was 0.206 µM and the TGI worked out at 0.504 µM.

As for `CCN(CC)c1ccnc(CNCCSC(c2ccccc2)(c2ccccc2)c2ccc(C)cc2)c1`, the GI50 is 1.71 µM in experiment [2]; 12.4 µM in experiment [3]; 4.98 µM in experiment [4]; 3.22 µM in [5]; 1.9 µM in [6]; 3.11 µM in [7]. Moreover, the GI50 is 1.96 µM in experiment [8]; 1.84 µM in experiment [9]; 2.92 µM in [10]; 1.78 µM in experiment [11]; 1.69 µM in experiment [12]; 1.67 µM in experiment [13]. For the same compound, the GI50 is 1.67 µM in experiment [14]; 2.22 µM in experiment [15]; 2.29 µM in experiment [16]; 1.62 µM in experiment [17]; 2.39 µM in [18]; 1.91 µM in [19]. The GI50 in experiment [20] was 3.21 µM; in [21], 2.34 µM; in [22], 2.33 µM; in experiment [23], 1.67 µM; in experiment [24] it was 1.84 µM; in experiment [25], 1.68 µM. Besides, the GI50 in experiment [26] was 1.38 µM; in [27], 1.99 µM; in [28], 2.26 µM; in [1], 1.83 µM; in experiment [29], 2.85 µM; in [30], 4.45 µM. Further, the GI50 in [31] was 1.7 µM; in [32], 1.98 µM; in [33] it was 2.27 µM; in [34] it was 2.21 µM; in [35], 3.7 µM; in [36], 2.67 µM. In addition, the GI50 was 2.49 µM in experiment [37]; 2.27 µM in [38]; 2.05 µM in experiment [39]; 2.23 µM in experiment [40]; 3.35 µM in [41]; 1.59 µM in experiment [42]. For the same compound, the GI50 in experiment [43] was 1.87 µM; in experiment [44] it was 1.86 µM; in experiment [45], 1.73 µM; in [46], 3.31 µM; in [47] it was 2.4 µM; in experiment [48], 3.13 µM. In addition, the GI50 in [49] was 2.87 µM; in experiment [50] it was 2.47 µM; in experiment [51], 2.5 µM; in [52], 4.37 µM; in experiment [53], 2.14 µM; in [54], 3.52 µM. In addition, the GI50 in experiment [55] is 2.64 µM; in experiment [56] it was 2.66 µM. Also, the TGI in [2] is 3.21 µM; in [3], 27.4 µM; in experiment [4] it was 20.6 µM; in experiment [5], 11.7 µM; in experiment [6], 5.46 µM; in [7], 12.8 µM. Also, the TGI in experiment [8] came out at 5.19 µM; in experiment [9], 3.39 µM; in [10], 8.29 µM; in experiment [11], 3.97 µM; in experiment [12] it was 3.07 µM; in [13] it was 3.18 µM. Further, the TGI in [14] was 3.15 µM; in [15], 4.52 µM; in experiment [16], 6.21 µM; in experiment [17], 5.87 µM; in experiment [18] it was 7.84 µM; in experiment [19], 4.01 µM. Besides, the TGI in experiment [20] stood at 12.3 µM; in experiment [21], 6.15 µM; in experiment [22], 5.79 µM; in experiment [23], 3.09 µM; in experiment [24], 3.68 µM; in [25], 3.13 µM. For the same compound, the TGI in experiment [26] worked out at 2.85 µM; in experiment [27], 4.53 µM; in experiment [28], 5.38 µM; in experiment [1], 3.85 µM; in [29] it was 7.28 µM; in [30], 20.4 µM. Also, the TGI in experiment [31] turned out to be 3.27 µM; in [32] it was 3.79 µM; in [33], 5.61 µM; in [34], 5.07 µM; in experiment [35] it was 14.5 µM; in [36], 11.3 µM. For the same compound, the TGI turned out to be 6.12 µM in [37]; 7.77 µM in experiment [38]; 4.88 µM in experiment [39]; 7.24 µM in experiment [40]; 13 µM in [41]; 3.01 µM in experiment [42]. Also, the TGI was 3.52 µM in experiment [43]; 4.16 µM in experiment [44]; 3.12 µM in [45]; 11.5 µM in experiment [46]; 6.29 µM in [47]; 12 µM in [48]. For the same compound, the TGI in [49] worked out at 14.1 µM; in experiment [50], 6.86 µM; in [51], 9.04 µM; in experiment [52], 17 µM; in experiment [53], 6.02 µM; in experiment [54], 11.8 µM. For the same compound, the TGI was found to be 8.33 µM in experiment [55] and 12.7 µM in [56].

For the compound `COc1ccc(C2=NN(C(=O)c3cc(OC)c(OC)c(OC)c3)C(c3ccc(Cl)cc3)C2)cc1OC` (configuration not stated), in experiment [1], the GI50 was 0.585 µM and the TGI was above 100 µM.

In the case of `CN(C)CCOc1ccc(/C(=C(/CCCl)c2ccccc2)c2ccccc2)cc1`, in experiment [1], the GI50 was 0.682 µM and the TGI came out at 1.52 µM.

As for `COC(=O)[C@]12CC[C@@H](C)[C@H](C)[C@@H]1C1=CC[C@@H]3[C@@]4(C)C(C=O)=C[C@@](C)(COC(=O)c5ccco5)[C@@H]4C(=O)C[C@@]3(C)[C@]1(C)CC2`, the GI50 in [1] was 0.277 µM.
